{"source": "patent USRE48461E1", "about": "“Modulation of androgen receptor expression” (Ionis Pharmaceuticals, Inc., priority 2012, dated 2021)", "key": {"AR mRNA [1]": {"test_system": "AR mRNA", "assay": "Antisense inhibition of human AR in HuVEC cells, single concentration (electroporation, qRT-PCR RTS3559)", "type": "cell-based", "procedure,_shortened": "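HuVEC cells electroporated with antisense oligonucleotides at a single concentration. AR mRNA quantified by qRT-PCR using human primer-probe set RTS3559 and normalised to total RNA content by RIBOGREEN.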"}, "AR mRNA [2]": {"test_system": "AR mRNA", "assay": "Dose-dependent antisense inhibition of human AR in HuVEC cells (electroporation, qRT-PCR RTS3559, IC50)", "type": "cell-based", "procedure,_shortened": "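HuVEC cells dosed with antisense oligonucleotides by electroporation and treated approximately 16 hours. AR mRNA quantified by real-time qPCR with primer probe set RTS3559 and normalised to total RNA by RIBOGREEN; IC50 from dose-response.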"}, "[3]": {"settings": "Table 19, 500 nM oligonucleotide, electroporation, approximately 24 hours, relative to untreated control"}, "[4]": {"settings": "Table 31, 46.9 nM, HuVEC, electroporation, approximately 16 hours"}, "[5]": {"settings": "Table 31, 187.5 nM, HuVEC, electroporation, approximately 16 hours"}, "[6]": {"settings": "Table 31, 750.0 nM, HuVEC, electroporation, approximately 16 hours"}, "[7]": {"settings": "Table 31, 3000.0 nM, HuVEC, electroporation, approximately 16 hours"}, "[8]": {"settings": "Table 31, HuVEC, electroporation, approximately 16 hours"}}, "note": "Oligonucleotides are written 5' to 3', each unit as a sugar letter and its base; * is a phosphorothioate linkage, no mark a phosphodiester; rarer units and linkages stand in square brackets, end groups in braces. Plain capitals give the bases only. k = constrained ethyl (cEt); [5mC] = 5-methylcytosine; d = 2'-deoxy (DNA)", "data": [{"substance": "583797 (antisense kT*k[5mC]*kG*dG*dA*dT*dA*d[5mC]*dT*dG*d[5mC]*dT*dT*k[5mC]*k[5mC]*kT) [compound 583797]", "values": [{"measurement": "% inhibition", "setting": "AR mRNA [1]; [3]", "result": 35, "unit": "%"}, {"measurement": "percent inhibition of AR, 46.9 nM", "setting": "AR mRNA [2]; Table 32, 46.9 nM, HuVEC, electroporation, approximately 16 hours", "result": 21, "unit": "%"}, {"measurement": "percent inhibition of AR, 187.5 nM", "setting": "AR mRNA [2]; Table 32, 187.5 nM, HuVEC, electroporation, approximately 16 hours", "result": 50, "unit": "%"}, {"measurement": "percent inhibition of AR, 750.0 nM", "setting": "AR mRNA [2]; Table 32, 750.0 nM, HuVEC, electroporation, approximately 16 hours", "result": 74, "unit": "%"}, {"measurement": "percent inhibition of AR, 3000.0 nM", "setting": "AR mRNA [2]; Table 32, 3000.0 nM, HuVEC, electroporation, approximately 16 hours", "result": 82, "unit": "%"}, {"measurement": "IC50", "setting": "AR mRNA [2]; Table 32, HuVEC, electroporation, approximately 16 hours", "result": 220, "unit": "nM"}]}, {"substance": "583714 (antisense kT*k[5mC]*k[5mC]*dA*dT*d[5mC]*d[5mC]*dT*dT*dG*dA*dG*d[5mC]*kT*kT*kG) [compound 583714]", "values": [{"measurement": "% inhibition", "setting": "AR mRNA [1]; 500 nM ASO, ~24 h, Table 18", "result": 36, "unit": "%"}, {"measurement": "percent inhibition of AR, 46.9 nM", "setting": "AR mRNA [2]; [4]", "result": 22, "unit": "%"}, {"measurement": "percent inhibition of AR, 187.5 nM", "setting": "AR mRNA [2]; [5]", "result": 34, "unit": "%"}, {"measurement": "percent inhibition of AR, 750.0 nM", "setting": "AR mRNA [2]; [6]", "result": 59, "unit": "%"}, {"measurement": "percent inhibition of AR, 3000.0 nM", "setting": "AR mRNA [2]; [7]", "result": 79, "unit": "%"}, {"measurement": "IC50", "setting": "AR mRNA [2]; [8]", "result": 400, "unit": "nM"}]}, {"substance": "584111 (kG*kT*kT*dT*dT*d[5mC]*dA*dA*dA*dT*dG*d[5mC]*dA*kG*k[5mC]*k[5mC]; antisense) [compound 584111]", "values": [{"measurement": "% inhibition", "setting": "AR mRNA [1]; Table 23, 500 nM oligonucleotide, electroporation, approximately 24 hours, relative to untreated control", "result": 33, "unit": "%"}, {"measurement": "percent inhibition of AR, 46.9 nM", "setting": "AR mRNA [2]; Table 35, 46.9 nM, HuVEC, electroporation, approximately 16 hours", "result": 22, "unit": "%"}, {"measurement": "percent inhibition of AR, 187.5 nM", "setting": "AR mRNA [2]; Table 35, 187.5 nM, HuVEC, electroporation, approximately 16 hours", "result": 30, "unit": "%"}, {"measurement": "percent inhibition of AR, 750.0 nM", "setting": "AR mRNA [2]; Table 35, 750.0 nM, HuVEC, electroporation, approximately 16 hours", "result": 59, "unit": "%"}, {"measurement": "percent inhibition of AR, 3000.0 nM", "setting": "AR mRNA [2]; Table 35, 3000.0 nM, HuVEC, electroporation, approximately 16 hours", "result": 84, "unit": "%"}, {"measurement": "IC50", "setting": "AR mRNA [2]; Table 35, HuVEC, electroporation, approximately 16 hours", "result": 330, "unit": "nM"}]}, {"substance": "549334 (k[5mC]*kA*k[5mC]*d[5mC]*dT*dG*d[5mC]*dG*dG*dG*dA*dA*dG*k[5mC]*kT*k[5mC]; antisense) [compound 549334]", "values": [{"measurement": "% inhibition", "setting": "AR mRNA [1]; 500 nM ASO, electroporation, ~24 h, Table 1", "result": 83, "unit": "%"}, {"measurement": "percent inhibition of AR", "setting": "AR mRNA [2]; 55.6 nM, HuVEC, ~16 h, Table 4", "result": 29, "unit": "%"}, {"measurement": "percent inhibition of AR", "setting": "AR mRNA [2]; 166.7 nM, HuVEC, ~16 h, Table 4", "result": 46, "unit": "%"}, {"measurement": "percent inhibition of AR", "setting": "AR mRNA [2]; 500.0 nM, HuVEC, ~16 h, Table 4", "result": 63, "unit": "%"}, {"measurement": "percent inhibition of AR", "setting": "AR mRNA [2]; 1500.0 nM, HuVEC, ~16 h, Table 4", "result": 72, "unit": "%"}, {"measurement": "IC50", "setting": "AR mRNA [2]; HuVEC, ~16 h, Table 4", "result": 253, "unit": "nM"}]}, {"substance": "583818 (antisense kT*kG*kG*dT*d[5mC]*dG*dA*dA*dG*dT*dG*d[5mC]*d[5mC]*k[5mC]*k[5mC]*k[5mC]) [compound 583818]", "values": [{"measurement": "% inhibition", "setting": "AR mRNA [1]; [3]", "result": 42, "unit": "%"}, {"measurement": "percent inhibition of AR, 46.9 nM", "setting": "AR mRNA [2]; [4]", "result": 9, "unit": "%"}, {"measurement": "percent inhibition of AR, 187.5 nM", "setting": "AR mRNA [2]; [5]", "result": 46, "unit": "%"}, {"measurement": "percent inhibition of AR, 750.0 nM", "setting": "AR mRNA [2]; [6]", "result": 71, "unit": "%"}, {"measurement": "percent inhibition of AR, 3000.0 nM", "setting": "AR mRNA [2]; [7]", "result": 84, "unit": "%"}, {"measurement": "IC50", "setting": "AR mRNA [2]; [8]", "result": 310, "unit": "nM"}]}, {"substance": "583893 (kA*kG*k[5mC]*dA*dG*d[5mC]*d[5mC]*dT*dA*dG*dG*d[5mC]*dT*k[5mC]*kT*k[5mC]; antisense) [compound 583893]", "values": [{"measurement": "% inhibition", "setting": "AR mRNA [1]; Table 20, 500 nM oligonucleotide, electroporation, approximately 24 hours, relative to untreated control", "result": 34, "unit": "%"}, {"measurement": "percent inhibition of AR, 46.9 nM", "setting": "AR mRNA [2]; Table 33, 46.9 nM, HuVEC, electroporation, approximately 16 hours", "result": 15, "unit": "%"}, {"measurement": "percent inhibition of AR, 187.5 nM", "setting": "AR mRNA [2]; Table 33, 187.5 nM, HuVEC, electroporation, approximately 16 hours", "result": 35, "unit": "%"}, {"measurement": "percent inhibition of AR, 750.0 nM", "setting": "AR mRNA [2]; Table 33, 750.0 nM, HuVEC, electroporation, approximately 16 hours", "result": 62, "unit": "%"}, {"measurement": "percent inhibition of AR, 3000.0 nM", "setting": "AR mRNA [2]; Table 33, 3000.0 nM, HuVEC, electroporation, approximately 16 hours", "result": 79, "unit": "%"}, {"measurement": "IC50", "setting": "AR mRNA [2]; Table 33, HuVEC, electroporation, approximately 16 hours", "result": 420, "unit": "nM"}]}, {"substance": "586225 (kG*kT*kT*kG*kA*dT*dT*dT*dA*dA*dT*dG*dG*kT*kT*kG; antisense) [compound 586225]", "values": [{"measurement": "% inhibition", "setting": "AR mRNA [1]; 1,000 nM ASO, ~24 h, Table 13", "result": 88, "unit": "%"}, {"measurement": "percent inhibition of AR", "setting": "AR mRNA [2]; 46.9 nM, HuVEC, ~16 h, Table 15", "result": 17, "unit": "%"}, {"measurement": "percent inhibition of AR", "setting": "AR mRNA [2]; 187.5 nM, HuVEC, ~16 h, Table 15", "result": 61, "unit": "%"}, {"measurement": "percent inhibition of AR", "setting": "AR mRNA [2]; 750.0 nM, HuVEC, ~16 h, Table 15", "result": 89, "unit": "%"}, {"measurement": "percent inhibition of AR", "setting": "AR mRNA [2]; 3000.0 nM, HuVEC, ~16 h, Table 15", "result": 97, "unit": "%"}, {"measurement": "IC50", "setting": "AR mRNA [2]; HuVEC cells, electroporation", "result": 130, "unit": "nM"}, {"measurement": "inhibition of AR mRNA at 46.9 nM", "setting": "AR mRNA [2]; HuVEC cells, electroporation, 46.9 nM ASO", "result": 17, "unit": "%"}, {"measurement": "inhibition of AR mRNA at 187.5 nM", "setting": "AR mRNA [2]; HuVEC cells, electroporation, 187.5 nM ASO", "result": 61, "unit": "%"}, {"measurement": "inhibition of AR mRNA at 750.0 nM", "setting": "AR mRNA [2]; HuVEC cells, electroporation, 750.0 nM ASO", "result": 89, "unit": "%"}, {"measurement": "inhibition of AR mRNA at 3000.0 nM", "setting": "AR mRNA [2]; HuVEC cells, electroporation, 3000.0 nM ASO", "result": 97, "unit": "%"}, {"measurement": "IC50", "setting": "AR mRNA [2]; HuVEC, ~16 h, Table 15", "result": 130, "unit": "nM"}]}, {"substance": "584263 (kT*kA*kG*dG*dG*dT*dT*dT*dG*dG*dT*d[5mC]*dA*kG*kA*kA; antisense) [compound 584263]", "values": [{"measurement": "% inhibition", "setting": "AR mRNA [1]; Table 25, 1,000 nM oligonucleotide, electroporation, approximately 24 hours, relative to untreated control", "result": 56, "unit": "%"}, {"measurement": "percent inhibition of AR, 46.9 nM", "setting": "AR mRNA [2]; Table 36, 46.9 nM, HuVEC, electroporation, approximately 16 hours", "result": 9, "unit": "%"}, {"measurement": "percent inhibition of AR, 187.5 nM", "setting": "AR mRNA [2]; Table 36, 187.5 nM, HuVEC, electroporation, approximately 16 hours", "result": 24, "unit": "%"}, {"measurement": "percent inhibition of AR, 750.0 nM", "setting": "AR mRNA [2]; Table 36, 750.0 nM, HuVEC, electroporation, approximately 16 hours", "result": 67, "unit": "%"}, {"measurement": "percent inhibition of AR, 3000.0 nM", "setting": "AR mRNA [2]; Table 36, 3000.0 nM, HuVEC, electroporation, approximately 16 hours", "result": 90, "unit": "%"}, {"measurement": "IC50", "setting": "AR mRNA [2]; Table 36, HuVEC, electroporation, approximately 16 hours", "result": 340, "unit": "nM"}]}]}
